Laboratory results: ChEMBL document CHEMBL3734659, “Identification of tris-(phenylalkyl)amines as new selective h5-HT2Breceptor antagonists” (Medchemcomm, 2015)

Tests used:
[1] = molecular target: 5-hydroxytryptamine receptor 2B (Homo sapiens, UniProt P41595); assay: […] antagonist activity at human recombinant 5-HT2B receptor stably expressed in HEK cell membrane by schild plot method; set-up: species or system HEK293; conditions: read-out: pA2 (converted)
[2] = molecular target: 5-hydroxytryptamine receptor 1A (Homo sapiens, UniProt P08908); assay: Displacement of [3H]Way100635 from human recombinant 5-HT1A receptor stably expressed in CHO cell membrane after 90 mins by scintillation counting method; format: cell membranes
Sequence of 5-hydroxytryptamine receptor 1A (P08908 whole entry): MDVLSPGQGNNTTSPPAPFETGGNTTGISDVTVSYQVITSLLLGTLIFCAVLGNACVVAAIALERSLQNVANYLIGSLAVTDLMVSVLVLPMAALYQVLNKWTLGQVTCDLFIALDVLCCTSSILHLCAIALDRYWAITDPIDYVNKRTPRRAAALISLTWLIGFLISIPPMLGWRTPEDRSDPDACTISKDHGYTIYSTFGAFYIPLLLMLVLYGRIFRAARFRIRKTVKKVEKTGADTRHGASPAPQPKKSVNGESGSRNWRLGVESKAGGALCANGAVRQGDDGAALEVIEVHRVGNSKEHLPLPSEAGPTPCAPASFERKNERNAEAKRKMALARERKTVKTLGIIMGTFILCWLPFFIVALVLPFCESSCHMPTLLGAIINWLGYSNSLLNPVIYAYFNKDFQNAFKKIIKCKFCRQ

Sequence of 5-hydroxytryptamine receptor 2B (P41595 whole entry): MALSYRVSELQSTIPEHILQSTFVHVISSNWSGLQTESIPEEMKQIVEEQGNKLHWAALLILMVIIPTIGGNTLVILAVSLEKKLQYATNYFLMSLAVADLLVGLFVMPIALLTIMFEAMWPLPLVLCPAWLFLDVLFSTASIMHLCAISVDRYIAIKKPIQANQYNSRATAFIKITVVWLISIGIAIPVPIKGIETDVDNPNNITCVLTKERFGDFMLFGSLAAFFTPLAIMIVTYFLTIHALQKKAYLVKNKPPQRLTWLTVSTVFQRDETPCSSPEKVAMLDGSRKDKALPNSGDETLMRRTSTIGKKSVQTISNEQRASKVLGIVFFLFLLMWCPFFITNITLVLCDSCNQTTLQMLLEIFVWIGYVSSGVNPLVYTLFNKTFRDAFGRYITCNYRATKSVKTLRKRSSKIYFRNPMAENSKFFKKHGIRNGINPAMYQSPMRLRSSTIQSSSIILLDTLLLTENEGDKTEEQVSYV

COc1ccc(CCN(CCCc2ccccc2)CCc2ccc3c(c2)OCO3)cc1OC
Kb [1]: 550 nM
Ki [2]: 821 nM
